Legend:
CSNK2A2 = target: T1, CSNK2A2 (Homo sapiens, UniProt P19784); test: NanoBRET in-cell target engagement, Tracer K10 displacement, HEK293; format: cell-based
T1 construct: CSNK2A-NLuc fusion

CSNK2A1 = target: T2, CSNK2A1 (Homo sapiens, UniProt P68400); test: as above; format: cell-based
T2 construct: CSNK2A-NLuc fusion
T2 sequence (P68400 whole entry, the tested form may be a part): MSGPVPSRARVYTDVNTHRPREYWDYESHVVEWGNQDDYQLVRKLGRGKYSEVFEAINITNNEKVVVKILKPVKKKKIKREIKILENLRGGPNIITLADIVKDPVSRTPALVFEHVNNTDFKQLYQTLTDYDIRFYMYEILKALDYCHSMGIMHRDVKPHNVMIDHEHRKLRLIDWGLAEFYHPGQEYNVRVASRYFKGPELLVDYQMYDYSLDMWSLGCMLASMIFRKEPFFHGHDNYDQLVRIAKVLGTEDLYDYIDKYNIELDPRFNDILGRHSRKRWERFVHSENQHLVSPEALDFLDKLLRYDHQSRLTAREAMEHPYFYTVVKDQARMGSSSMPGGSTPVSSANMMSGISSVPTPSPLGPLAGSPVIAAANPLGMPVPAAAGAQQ

T1 sequence (P19784 whole entry, the tested form may be a part): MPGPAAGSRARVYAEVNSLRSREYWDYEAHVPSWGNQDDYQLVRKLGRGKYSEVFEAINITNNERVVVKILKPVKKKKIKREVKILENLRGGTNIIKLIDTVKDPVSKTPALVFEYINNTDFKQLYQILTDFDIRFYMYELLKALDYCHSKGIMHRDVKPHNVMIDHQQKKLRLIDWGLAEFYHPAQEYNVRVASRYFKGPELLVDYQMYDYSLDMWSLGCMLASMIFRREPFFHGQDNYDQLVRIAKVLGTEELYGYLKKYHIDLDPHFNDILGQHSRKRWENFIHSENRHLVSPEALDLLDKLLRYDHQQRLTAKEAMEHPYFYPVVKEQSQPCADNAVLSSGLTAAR

SMILES: CN[C@H]1CCCN(c2ccc(Nc3cc(NC4CC4)n4ncc(C#N)c4n3)cc2NC(C)=O)C1 [2c, (S)-N-(5-((3-cyano-7-(cyclopropylamino)pyrazolo[1,5-a]pyrimidin-5-yl)amino)-2-(3-(methylamino)piperidin-1-yl)phenyl)acetamide]
- [drawing 10] / CSNK2A2 pIC50^a (CSNK2A2): 8.4 pIC50
- [drawing 10] / CSNK2A1 pIC50^a (CSNK2A1): 8.3 pIC50

SMILES: CN[C@@H]1CCN(c2ccc(Nc3cc(NC4CC4)n4ncc(C#N)c4n3)cc2NC(C)=O)C1 [2d, (R)-N-(5-((3-cyano-7-(cyclopropylamino)pyrazolo[1,5-a]pyrimidin-5-yl)amino)-2-(3-(methylamino)pyrrolidin-1-yl)phenyl)acetamide]
- [drawing 10] / CSNK2A2 pIC50^a (CSNK2A2): 8.8 pIC50
- [drawing 10] / CSNK2A1 pIC50^a (CSNK2A1): 8.6 pIC50

SMILES: CN[C@H]1CCN(c2ccc(Nc3cc(NC4CC4)n4ncc(C#N)c4n3)cc2NC(C)=O)C1 [2e, (S)-N-(5-((3-cyano-7-(cyclopropylamino)pyrazolo[1,5-a]pyrimidin-5-yl)amino)-2-(3-(methylamino)pyrrolidin-1-yl)phenyl)acetamide]
- [drawing 10] / CSNK2A2 pIC50^a (CSNK2A2): 8.4 pIC50
- [drawing 10] / CSNK2A1 pIC50^a (CSNK2A1): 8.3 pIC50

SMILES: CC(=O)Nc1cc(Nc2cc(NC3CC3)n3ncc(C#N)c3n2)ccc1N(C)C[C@@H]1CCCN1 [2f, (S)-N-(5-((3-cyano-7-(cyclopropylamino)pyrazolo[1,5-a]pyrimidin-5-yl)amino)-2-(methyl(pyrrolidin-2-ylmethyl)amino)phenyl)acetamide]
- [drawing 10] / CSNK2A2 pIC50^a (CSNK2A2): 8.5 pIC50
- [drawing 10] / CSNK2A1 pIC50^a (CSNK2A1): 8.4 pIC50

SMILES: CC(=O)Nc1cc(Nc2cc(NC3CC3)n3ncc(C#N)c3n2)ccc1N[C@@H]1CCCOC1 [2m, (R)-N-(5-((3-cyano-7-(cyclopropylamino)pyrazolo[1,5-a]pyrimidin-5-yl)amino)-2-((tetrahydro-2H-pyran-3-yl)amino)phenyl)acetamide]
- [drawing 10] / CSNK2A2 pIC50^a (CSNK2A2): 8.1 pIC50
- [drawing 10] / CSNK2A1 pIC50^a (CSNK2A1): 8.0 pIC50

— doi:10.1101/2023.05.15.540828, “Optimization of 3-Cyano-7-cyclopropylamino-pyrazolo[1,5-a]pyrimidines Toward the Development of an In Vivo Chemical Probe for CSNK2A” (bioRxiv, 2023)
